Measured values from patent US20230096978A1, “MOR RECEPTOR AGONIST COMPOUND, PREPARATION METHOD THEREFOR, AND USE THEREOF” (CHENGDU EASTON BIOPHARMACEUTICALS CO., LTD., priority 2020, published 2023).
Values joined by “and” are separate entries in the source; they are usually repeats but may differ in a detail not shown here. Equal values may be shown once. Read-outs that look alike come from different tables or passages of the source.

What was measured:
[1] = tested on: colonic motility (glass bead expulsion) in mice; assay: Mouse colonic glass bead expulsion time test; assay type: in vivo; details: C57BL/6 mice, 1 mg/kg single tail vein injection, n = 10; for Mean Expulsion Time: beads inserted 20 min after administration, limit 120 min, Mean ± S.E.M.; for Expulsion Time Prolonging Rate (ETPR): relative to solvent control
Method: 1. Test purpose: to test the effect of the test compound on the expulsion time of colonic glass beads from mice, and to preliminarily investigate its inhibitory effect on colonic motility.
Administered via tail vein injection at an equal dose of 1 mg/kg;
After 6-7 days of adaptive feeding of C57BL/6 mice, the animals fasted with free access to water for 12-16 hours and then randomly divided into 10 groups, 10 mice per group. Each group employed a single administration via tail vein, and the administration volume was 10 mL/kg. The solvent control group was given a vehicle (normal saline) via tail vein. 20 min after the administration, glass beads preheated to 37° C. with a diameter of 2 mm were pushed into the rectum at a distance of 2 cm through the anus. Timing was immediately started and the animals were placed individually in the observation cage to observe the time for the glass beads to be expulsed (the observation time limit was 120 min). If the glass beads had not been expulsed by the end of the observation period, the animals were euthanized and the rectum was dissected to confirm that the glass beads were still in the intestinal tract.
Colonic Expulsion Rate (CER)=number of animals that successfully expulsed glass beads during the observation period/total number of animals in this group×100%;
Expulsion Time Prolonging Rate (ETPR)=(mean expulsion time of test sample group—mean expulsion time of solvent control group)/mean expulsion time of solvent control group×100%;
Percent Maximum Possible Effect (% Maximum Possible Effect, Percent MPE)=(mean expulsion time of test sample group—mean expulsion time of solvent control group)/(120-mean expulsion time of solvent control group)×100%; Calculation and related statistical processing were performed on the test data using Microsoft Office Excel 2007 and GraphPad Prism software. Unless otherwise specified, the data were shown as mean±standard error (Mean±S.E.M.), and the comparison between groups was performed by one-way ANOVA, and the Dunnett's method was used for pairwise comparison test.

[2] = tested on: thermal radiation tail-flick pain threshold in rats; assay: Rat thermal radiation tail-flick pain threshold test; assay type: in vivo, SD rats; details: 0.7 mg/kg tail vein injection, Mean ± SEM; for Maximum percentage of analgesia (MPE) 0.5 h: 0.5 h after administration, n = 10; for Maximum percentage of analgesia (MPE) 1 h: 1 h after administration; for Maximum percentage of analgesia (MPE) 2 h: 2 h after administration; for Maximum percentage of analgesia (MPE) 3 h: 3 h after administration
Method: 1. Test purpose: to measure the effect of each compound sample on the pain threshold of rats by using the rat thermal radiation tail flick method.
Administered via tail vein injection at an equal dose of 0.7 mg/kg;
The rats (SD rats, SPF grade, with body weight of 220-250g, purchased from Beijing Vital River Laboratory Animal Technology Co., Ltd.) were firstly fixed in a special plastic cylinder, so that their tails were exposed and drooped naturally. Test was performed after the animals were quiet. […] The measured time interval was the tail-flick response latency, which is 3 s to 5 s in normal rats, and those with greater than 5 s or less than 3 s were excluded. Then, measurement was made every 5 min, and the mean of three measurements was taken as the basic nociceptive threshold. If the animal stayed more than 10 s under analgesic effect, the irradiation was stopped and 10 s was used as the upper limit of the tail flick latency to avoid burning the skin by the too-long irradiation. After the rats were given a certain dose of the drug, the pain thresholds of the rats were measured at different times.
After the rats were given a certain dose of the drug, the pain threshold of the rats was measured at 0.5 h, 1 h, 2 h, and 3 h. The maximum percentage of analgesia (% MPE) after administration was calculated, of which the calculation formula was as follows: MPE(%)=(pain threshold after administration−pain threshold before administration)/(10s−pain threshold before administration))×100%

[3] = biological target: T1, DOR (Delta Opioid Receptor) (Homo sapiens, UniProt P41143); assay: cAMP agonistic activity assay, DOR stably transfected cell line; assay type: cell-based
T1 construct: expressed in transfected cells
T1 sequence (P41143 whole entry): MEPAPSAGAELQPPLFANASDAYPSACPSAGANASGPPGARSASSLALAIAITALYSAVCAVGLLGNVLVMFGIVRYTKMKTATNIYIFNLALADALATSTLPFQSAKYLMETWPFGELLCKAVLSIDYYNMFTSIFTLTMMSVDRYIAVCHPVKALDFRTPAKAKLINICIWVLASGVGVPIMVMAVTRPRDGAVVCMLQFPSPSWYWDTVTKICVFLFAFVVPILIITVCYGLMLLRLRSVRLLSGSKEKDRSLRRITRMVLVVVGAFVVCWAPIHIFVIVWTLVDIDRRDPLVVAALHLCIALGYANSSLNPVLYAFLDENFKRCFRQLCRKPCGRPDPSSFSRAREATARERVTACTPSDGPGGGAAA
Method: (§1) 1. Test purpose: to detect the agonistic activity of compound samples utilizing MOR (Mu opioid Receptor), KOR(Kappa opioid receptor), and DOR (Delta Opioid Receptor) stably transfected cell lines and using the established cAMP assay detection platform.
(§2) a. All samples were dissolved with DMSO to a storage concentration of 30 mM.
(§3) b. A sample dilution sequence was prepared on a 384-well LDV plate. The first concentration point is 6 mM, with a 3.162-fold serial dilution and a total of 11 concentration points.
(§4) c. The sample dilution sequence was transferred to an test plate (Corning-3824) using the Echo machine, corresponding to transfer of 50 nL per well.
(§5) d. 50 nL of HPE or ZPE was transferred to the corresponding location of the test plate using the Echo machine.
(§6) 2.2 Test operation of cAMP agonistic activity detection
(§7) a. Assay buffer and stimulation buffer (STB) required for the test were formulated.
(§8) b. 5 μL of STB was firstly added to each well of the test plate (with 50 nL of compound already in the well), and then 5 μL of cell suspension was added thereto.
(§9) c. The test plate was incubated in a constant temperature incubator at 37° C.
(§10) d. A standard concentration curve of cAMP was created. The first concentration point was 2848 nM, with a 4-fold serial dilution and a total of 16 detection concentrations, and each concentration point was in triplicate.
(§11) e. cAMP detection reagent (Cisbio #62AM4PEJ) was added to the sample test plate and cAMP standard concentration test plate. 5 μL of D2 reagent was added first, and then 5 μL of Cryptate reagent was added.
(§12) f. The test plates were read on the Envision after being left for 60 minutes at room temperature.

[4] = Pharmacokinetic test after single tail vein injection; assay type: in vivo; details: SD (Sprague-Dawley), rat, plasma, iv; SD rats, single tail vein injection 2 mg/kg, n = 3
Method: 1. Test purpose: to investigate the pharmacokinetic parameters of each compound in the Experimental Example after a single tail vein administration.
Administered via tail vein at an equal dose of 2 mg/kg;
Blood was collected from the jugular vein before administration and 5 min, 10 min, 15 min, 20 min, 30 min, 45 min, 1h, 2h, 4h, 6h, 8h, 24 h after administration. 200 μL of whole blood was taken at each time point and was placed in an anticoagulation tube containing EDTA-K2, and centrifuged at 2000g at a low temperature of 4° C. to separate the plasma. The plasma was transferred to a microcentrifuge tube, and stored in a −80° C. refrigerator for later use.
By establishing a reliable LC/MS/MS analysis method, the blood concentration of each sample was detected, and the pharmacokinetic parameters of each compound were calculated.

MOR (Mu opioid Receptor) = biological target: T2, MOR (Mu opioid Receptor) (Homo sapiens, UniProt P35372); assay: cAMP agonistic activity assay, MOR stably transfected cell line; assay type: cell-based; details: for EC50 against μ receptor relative to that of TRV130: ratio of EC50 to TRV130
T2 construct: expressed in transfected cells
T2 sequence (P35372 whole entry, species assumed): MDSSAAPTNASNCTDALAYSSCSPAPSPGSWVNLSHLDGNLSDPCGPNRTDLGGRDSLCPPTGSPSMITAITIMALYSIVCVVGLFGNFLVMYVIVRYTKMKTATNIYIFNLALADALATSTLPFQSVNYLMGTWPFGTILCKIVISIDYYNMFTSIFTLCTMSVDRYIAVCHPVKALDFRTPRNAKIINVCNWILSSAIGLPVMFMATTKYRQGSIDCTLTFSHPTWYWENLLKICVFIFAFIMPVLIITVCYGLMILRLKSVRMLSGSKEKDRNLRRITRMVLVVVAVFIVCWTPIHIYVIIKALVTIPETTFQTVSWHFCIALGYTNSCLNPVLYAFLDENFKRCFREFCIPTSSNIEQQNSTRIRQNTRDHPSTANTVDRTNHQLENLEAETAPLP
Method: as §1, §2, §3, §4, §5, §6, §7, §8, §9, §10, §11, §12

[5] = biological target: T3, KOR(Kappa opioid receptor) (Homo sapiens, UniProt P41145); assay: cAMP agonistic activity assay, KOR stably transfected cell line; assay type: cell-based
T3 construct: expressed in transfected cells
T3 sequence (P41145 whole entry): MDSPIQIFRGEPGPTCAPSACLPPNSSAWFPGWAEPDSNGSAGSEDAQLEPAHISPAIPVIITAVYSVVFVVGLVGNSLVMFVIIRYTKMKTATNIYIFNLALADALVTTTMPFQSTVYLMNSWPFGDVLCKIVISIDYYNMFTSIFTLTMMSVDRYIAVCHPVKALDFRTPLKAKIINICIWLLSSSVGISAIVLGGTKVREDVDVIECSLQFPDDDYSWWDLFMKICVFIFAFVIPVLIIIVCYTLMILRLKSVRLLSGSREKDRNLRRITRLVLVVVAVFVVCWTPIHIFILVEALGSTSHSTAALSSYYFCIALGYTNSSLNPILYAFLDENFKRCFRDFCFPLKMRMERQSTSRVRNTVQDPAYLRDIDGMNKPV
Method: as §1, §2, §3, §4, §5, §6, §7, §8, §9, §10, §11, §12

[6] = agonistic effect, cAMP assay, δ opioid receptor, read-out: EC50 δ
[7] = agonistic effect, cAMP assay, μ opioid receptor, read-out: EC50 μ
[8] = agonistic effect, cAMP assay, κ opioid receptor, read-out: EC50 κ
[9] = n = 10, listed as positive compound, 0.7 mg/kg

| SMILES | Mean Expulsion Time [1] | Percent Maximum Possible Effect (Percent MPE) [1] [%] | Expulsion Time Prolonging Rate (ETPR) [1] [%] | Maximum percentage of analgesia (MPE) 0.5 h [2] [%] | Maximum percentage of analgesia (MPE) 1 h ([2]; n = 10, 0.7 mg/kg) | Maximum percentage of analgesia (MPE) 2 h ([2]; n = 10, 0.7 mg/kg) | Maximum percentage of analgesia (MPE) 3 h ([2]; n = 10, 0.7 mg/kg) | EC50 [3] [µM] | AUC(0-t) [4] [ng·h/mL] | Cmax [4] [ng/mL] | Tmax [4] [min] | half-life [4] [min] | EC50 (MOR (Mu opioid Receptor)) [µM] | EC50 against μ receptor relative to that of TRV130 (MOR (Mu opioid Receptor)) | EC50 [5] [µM] | EC50 [3, 6] [µM] | EC50 (MOR (Mu opioid Receptor); [7]) [µM] | EC50 [5, 8] [µM] | further results |
| --- | --- | --- | --- | --- | --- | --- | --- | --- | --- | --- | --- | --- | --- | --- | --- | --- | --- | --- | --- |
| COc1ccc2occ(CNCC[C@@]3(c4ccccn4)CCOC4(CCCC4)C3)c2c1 [Example 1] | 17.40 ± 5.84^※※♦♦ min | 11.55 | 333.92 | 100.00 | 89.95±7.06% and 89.95% | 86.51±10.06% and 86.51% | 65.91±5.76% and 65.91% | 65.3 | 585 ± 25.9 | 601 ± 32.5 | 6.6 ± 3 | 190.2 ± 1.2 | 0.00021 | about 1/10 | 51.4 |  |  |  |  |
| c1ccc([C@]2(CCNCc3coc4ccccc34)CCOC3(CCCC3)C2)nc1 [Example 2] | 25.85 ± 5.88^※※♦ min | 18.83 | 544.64 | 100.00 | 82.81±9.77% and 82.81% | 79.23±10.51% and 79.23% | 55.50±6.85% and 55.50% | 22.2 | 379 ± 63.1 | 309 ± 43 | 9 ± 0.6 | 137 ± 7.8 | 0.0029 | the same order of magnitude | 39.8 |  |  |  | EC50 against δ receptor relative to that of TRV130 ([3]; ratio of EC50 to TRV130): about 7 times; EC50 against κ receptor relative to that of TRV130 ([5]; ratio of EC50 to TRV130): about 7 times |
| c1ccc([C@]2(CCNCc3coc4ccc(O[C@@H]5CCOC5)cc34)CCOC3(CCCC3)C2)nc1 [Example 3] | 18.99 ± 6.55^※※♦♦ min | 12.91 | 373.57 | 100.00 | 86.89±7.34% and 86.89% | 82.95±8.69% and 82.95% | 61.46±8.58% and 61.46% |  | 532 ± 50.6 | 543 ± 72.8 | 9 ± 1.2 | 177 ± 20.4 |  | about 1/10 |  | 32.5 | 0.00056 | 56.8 |  |
| Fc1ccc([C@]2(CCNCc3ccccc3-c3ccncc3)CCOC3(CCCC3)C2)cc1 [Example 4] | 19.13 ± 3.93^※※♦♦ min | 13.04 | 377.06 | 100.00 | 85.79±9.25% and 85.79% | 83.78±11.31% and 83.78% | 60.92±2.45% and 60.92% |  | 563 ± 31.8 | 552 ± 48.7 | 10.8 ± 1.8 | 194 ± 6.6 |  | about 1/10 |  | 42.7 | 0.0045 | 54.5 |  |
| COc1ccsc1CNCC[C@@]1(c2ccccn2)CCOC2(CCCC2)C1 [TRV130, oliceridine, reference compound] | 37.57 ± 4.31^※※ min | 28.93 | 836.91 | 100.00 | 88.69% | 70.01% | 49.32% | 3.14 | 319 ± 30.6 | 235 ± 22.7 | 8.4 ± 6 | 56.4 ± 1.8 |  |  | 5.77 |  |  |  | Maximum percentage of analgesia (MPE) 1 h [2, 9]: 88.69±1.52%; Maximum percentage of analgesia (MPE) 2 h [2, 9]: 70.01±8.01%; Maximum percentage of analgesia (MPE) 3 h [2, 9]: 49.32±7.12% |
